The values below come from patent publication US7576103B2, “Tetralin and indane derivatives and uses thereof” (Roche Palo Alto LLC, priority 2004, dated 2009).

The structures appear in SMILES notation.

The target in assay [1] is T1, recombinant human 5-HT6 receptor (Homo sapiens, UniProt P50406).
T1 construct: expressed in transfected cells; cell membranes
Description: Radioligand binding, [3H]LSD competition, 5-HT6. The settings on record: membranes of HEK293 cells, pH 7.4, 37° C., read-out: pKi for the 5-HT6 receptor (converted). The method, then: (§1) The binding activity of compounds of this invention in vitro was determined as follows. Duplicate determinations of 5-HT6 ligand affinity were made by competing for binding of [^3H]LSD in cell membranes derived from HEK293 cells stably expressing recombinant human 5-HT6 receptor. Duplicate determinations of 5-HT2A ligand affinity were made by competing for binding of [^3H]Ketanserin (3-(2-(4-(4-fluorobenzoyl)piperidinol)ethyl)-2,4(1H,3H)-quinazolinedione) in cell membranes derived from CHO-K1 cells stably expressing recombinant human 5-HT2A receptor. Membranes were prepared from HEK 293 cell lines by the method described by Monsma et al., Molecular Pharmacology, Vol. 43 pp. 320-327 (1993), and from CHO-K1 cell lines as described by Bonhaus et al., Br J Pharmacol. June 115(4):622-8 (1995).
(§2) For estimation of affinity at the 5-HT6 receptor, all determinations were made in assay buffer containing 50 mM Tris-HCl, 10 mM MgSO4, 0.5 mM EDTA, 1 mM ascorbic acid, pH 7.4 at 37° C., in a 250 microliter reaction volume. […]
(§3) Assay tubes containing [^3H] […] LSD or [^3H]Ketanserin were determined as radioactive counts per minute using Packard TopCount.
(§4) Displacement of [^3H]LSD or [^3H]Ketanserin from the binding sites was quantified by fitting concentration-binding data to a 4-parameter logistic equation: […]

The target of assay [2] is T2, recombinant human 5-HT2A receptor (Homo sapiens, UniProt P28223).
T2 construct: expressed in transfected cells; cell membranes
T2 sequence (P28223 whole entry): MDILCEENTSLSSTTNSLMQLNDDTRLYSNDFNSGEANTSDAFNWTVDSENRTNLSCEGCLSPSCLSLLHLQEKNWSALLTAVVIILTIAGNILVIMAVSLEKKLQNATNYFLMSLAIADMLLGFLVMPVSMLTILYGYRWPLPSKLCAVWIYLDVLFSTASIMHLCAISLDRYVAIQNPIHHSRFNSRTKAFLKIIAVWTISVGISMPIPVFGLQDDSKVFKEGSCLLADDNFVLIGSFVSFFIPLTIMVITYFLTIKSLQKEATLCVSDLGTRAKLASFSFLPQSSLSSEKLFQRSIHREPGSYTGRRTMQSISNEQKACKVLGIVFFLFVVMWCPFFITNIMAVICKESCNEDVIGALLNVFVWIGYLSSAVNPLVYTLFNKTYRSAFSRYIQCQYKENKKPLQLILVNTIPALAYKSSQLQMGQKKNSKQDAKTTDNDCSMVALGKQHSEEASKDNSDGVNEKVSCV
As to the kind of experiment: Radioligand binding, [3H]Ketanserin competition, 5-HT2A. The settings on record: membranes of CHO-K1 cells, pH 7.4, 32° C., read-out: pKi for the 5-HT2A receptor (converted). On the procedure: as §1, §2, §3, §4

T1 sequence (P50406 whole entry): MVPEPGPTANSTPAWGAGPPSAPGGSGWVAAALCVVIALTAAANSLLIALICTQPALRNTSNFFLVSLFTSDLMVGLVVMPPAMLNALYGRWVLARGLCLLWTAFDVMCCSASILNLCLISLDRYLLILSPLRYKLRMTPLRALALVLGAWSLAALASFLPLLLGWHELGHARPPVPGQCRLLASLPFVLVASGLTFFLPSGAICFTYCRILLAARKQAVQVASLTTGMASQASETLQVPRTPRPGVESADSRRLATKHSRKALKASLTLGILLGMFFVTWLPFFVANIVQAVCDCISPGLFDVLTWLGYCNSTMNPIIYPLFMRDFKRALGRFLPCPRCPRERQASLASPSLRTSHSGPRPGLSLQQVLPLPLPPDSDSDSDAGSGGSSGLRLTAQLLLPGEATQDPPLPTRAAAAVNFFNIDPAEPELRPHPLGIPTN

With `CNCCOC1CCCc2cc(S(=O)(=O)c3ccccc3)ccc21` (centres unmarked) [Compound 5, [2-(6-Benzenesulfonyl-1,2,3,4-tetrahydro-naphthalen-1-yloxy)-ethyl]-methyl-amine], the Ki in assay [1] was 1.82 nM; in assay [2], 61.7 nM.
